≈ marks a conversion by molar mass, not a printed value.
Assays:
M. orale CH-19299 = assay: Anti-mycoplasmal activity (MIC, MMC), liquid dilution method; format: cell-based, Mycoplasma orale; details: Metamycoplasma orale, liquid dilution, M. orale CH-19299; for MBC: CH19299, 120 h, read-out: MMC; for MIC: CH19299, read-out: MIC
Method: The minimum growth inhibitory concentration (MIC, μg/ml) and minimum mycoplasmacidal concentration (MMC, μg/ml) of test chemicals were measured by the liquid dilution method. The method of measuring MIC in this example differs from that used in Test Example 1.
A 1,000 μg/ml aqueous solution of a test chemical was prepared, and diluted to 5 times with a preculture medium. The dilution (200 μg/ml) was serially diluted twofold with the same medium in a 8-well reservoir. Fifty microliters of each diluted solution was distributed in the wells of a microplate. A well to which no test chemical was added was used as a control.
A mycoplasma suspension for inoculation prepared as in Test Example 1 was pipetted in an amount of 50 microliters to each of the wells. The microplates were sealed by a plate seal, shaken by a micromixer, and cultivated at 37° C. for 5 days. In the control to which no test chemical was added, color change of the medium by the growth of mycoplasma was observed after two days from the start of the cultivation. At this time, 3 microliters of the liquid culture was inoculated in drug-free Chanock agar medium by using a Cathra-replicator. The liquid culture and the agar medium were further cultivated at 37° C. for 3 days (anaerobically in the case of M. orale, and aerobically in the case of A. laidlawii and M. arginini). MIC and MMC were determined from the results of observation on the 5th day. MIC was defined as the lowest concentration of the test chemical at which growth of mycoplasma in the drug-containing liquid medium was not noted, and MMC, as that in the drug-free agar medium.

A. laidlawii PG-8 = assay: Activity of eliminating artificially contaminated mycoplasma from L-929 cells; format: cell-based, Acholeplasma laidlawii
Method: Animal cells, experimentally contaminated by mycoplasma, were cultivated for 4 days in a medium containing the test chemical and then sub-cultivated in a medium to which the test chemical was not added in order to determine whether the mycoplasma re-grew (re-contamination).
(1) Preparation of mycoplasma-contaminated cells
The mycoplasmas described in Table 3 were each pre-cultivated as in Test Example 1, (1). Two milliliters of the cultures were centifuged at 1,500×g for 30 minutes to separate the mycoplasmas. The isolated mycoplasmas were suspended in 2 ml of 10%-FBS-MEM medium (Eagle's minimum essential medium supplemented with 10% fetal bovine serum and 100 U/ml of penicillin G).
Separately, mouse fibroblast cells L-929 was suspended in 10%-FBS-MEM medium so that their density became 2.5×10^4 /ml. Four milliliters of the suspension was put in a petri dish (diameter 6 cm) for tissue culture including two circular cover glasses (diameter 1.8 cm), and then 1 ml of the mycoplasma suspension described above was added. The mixture was incubated at 37° C. in 5% CO2 humidified atmosphere for 3 days, and then sub-cultivated twice in order to obtain mycoplasma-contaminated cells. Mycoplasma-contamination was confirmed by the highly specific DNA-fluorochromic staining method (the above cited "Procedures for Isolation and identification of Human, Animal and Plant Mycoplasmas", pages 95-97).
(2) Experiment of eliminating mycoplasma contamination
Mycoplasma-contaminated L-929 cells were cultivated as described in the preceding section. A 1,000 μg/ml aqueous solution of a test chemical was prepared, and diluted to predetermined concentrations with Eagle's minimum essential medium. The diluted solutions were added to the culture medium. Two petri dishes were used for each concentration of the test chemical, and two circular cover glasses were put in one of them for examination of mycoplasma. No cover glass was put in the other petri dish, and it was used for subcultivation. Cultivation in the test chemical-containing medium was carried out for 4 days, and thereafter, the cultivation was continued for 3 weeks in a drug-free medium. Medium replacement was effected every 3 to 4 days, and subcultivation was carried out once a week. Examination for mycoplasma contamination was performed on the 4th and 7th days, and thereafter every week. The mycoplasmas were detected by the highly specific DNA-fluorochromic staining method.

A. laidlawii PG8 = assay: Anti-mycoplasmal activity (MIC), agar-dilution method; format: cell-based; details: Acholeplasma laidlawii; agar dilution; A. laidlawii PG8; read-out: MIC
Method: (§1) The minimum growth inhibitory concentrations (MIC; μg/ml) of the test chemicals were measured by the agar-dilution method.
(§2) (1) Preparation of a mycoplasma suspension for inoculation
(§3) A stored frozen suspension of mycoplasma (0.2 to 0.3 ml) was inoculated in 2 to 3 ml of a preculture medium to be described later. It was serially diluted tenfold until the dilution ratio reached 10,000 times. These diluted solutions were cultivated at 37° C. for 2 to 7 days. A culture having the highest dilution ratio was selected from those cultures in which a color change of the media was noted as a result of mycoplasma growth. It was diluted to 100 times with the preculture medium to prepare a mycoplasma suspension for inoculation.
(§4) The following preculture media were used.
For Mycoplasma pneumoniae and Acholeplasma laidlawii, Chanock liquid medium containing 0.5% glucose (pH 7.8) [Library of Bacteriology 2, "Procedures for Isolation and Identification of Human, Animal and Plant Mycoplasmas", edited by Japanese Society for Bacteriology, page 8 (1982), Saikon Publishing Co.] was used.
(§5) (2) Preparation of agar plates containing the test chemicals
(§6) A 1,000 μg/ml aqueous solution of each test chemical was prepared (a difficultly-soluble chemical was dissolved by adding an equimolar amount of sodium hydroxide; the same applies hereinafter). The solution was used as a base solution and its twofold serial dilutions were prepared. The diluted solutions were pipetted on plastic petri dishes each in an amount of 1 ml. The Chanock agar medium (for Mycoplasma hyorhinis, 0.5% mucin was further added) described at page 9 of the above cited "Procedures for Isolation and Identification of Human, Animal and Plant Mycoplasmas" was heated and kept at 55° C. and put in an amount of 9 ml in each of the petri dishes containing the test chemicals and fully mixed with the test chemicals to prepare agar plates containing the test chemicals.
(§7) The mycoplasma suspension for inoculation prepared by the procedure described in section (1) was inoculated in an amount of about 3 microliters on each of the chemical-containing agar plates by means of a Cathra-replicator (3 mm pin). The plates on which Mycoplasma pneumoniae, Mycoplasma arginini, and Acholeplasma laidlawii and Mycoplasma hyorhinis were inoculated were tightly packed in a plastic bag together with the plasic petri dishes including water-immersed absorbent cotton. Mycoplasma pneumoniae was aerobically cultivated at 37° C. under highly humid conditions for 7 days; and Mycoplasma arginini and Acholeplasma laidlawii, for 2 days. The other mycoplasma species were cultivated anaerobically for 2 days by using a GasPak anaerobic system (BBL). After the cultivation, growth of mycoplasma were observed under an OLYMPUS microscope (20-100 X). The lowest concentration of the test chemical at which no growth of mycoplasma was noted is defined as MIC.

M. arginini G230 = assay: as above; format: cell-based, Mycoplasma arginini; details: Mycoplasmopsis arginini; agar dilution; M. arginini G230; read-out: MIC
Method: as §1, §2, §3, §4
(§8) For other mycoplasma species, Chanock liquid medium (pH 6.8) containing 0.2% arginine was used.
as §5, §6, §7

M. orale CH19299 = assay: as above; format: cell-based, Mycoplasma orale; details: Metamycoplasma orale; agar dilution; M. orale CH19299; read-out: MIC
Method: as §1, §2, §3, §4, §8, §5, §6, §7

Question: With `CC1CN(c2c(F)c(N)c3c(=O)c(C(=O)O)cn(C4CC4)c3c2F)CCN1` (stereo not shown) [Compound 1] as the molecule, how does the MBC (M. orale CH-19299) read?
Answer: 0.39 µg/mL (≈ 1.03 µM)

Question: And the MIC (M. orale CH-19299)?
Answer: 0.39 µg/mL (≈ 1.03 µM)

Question: And the mycoplasma elimination (A. laidlawii PG-8; 0.2 μg/ml, day 0)?
Answer: +

Question: And the mycoplasma elimination (A. laidlawii PG-8; 0.2 μg/ml, day 4)?
Answer: +

Question: And the mycoplasma elimination (A. laidlawii PG-8; 0.2 μg/ml, day 7)?
Answer: +

Question: And the mycoplasma elimination (A. laidlawii PG-8; 0.2 μg/ml, day 14)?
Answer: +

Question: What about the mycoplasma elimination (A. laidlawii PG-8; 0.2 μg/ml, day 28) of the same molecule?
Answer: +

Question: What about the mycoplasma elimination (A. laidlawii PG-8; 0.39 μg/ml, day 0) of the same molecule?
Answer: +

Question: What about the mycoplasma elimination (A. laidlawii PG-8; 0.39 μg/ml, day 4) of the same molecule?
Answer: -

Question: And the mycoplasma elimination (A. laidlawii PG-8; 0.39 μg/ml, day 7)?
Answer: -

Question: And the mycoplasma elimination (A. laidlawii PG-8; 0.39 μg/ml, day 14)?
Answer: -

Question: What about the mycoplasma elimination (A. laidlawii PG-8; 0.39 μg/ml, day 28) of the same molecule?
Answer: -

Question: And the MIC (A. laidlawii PG8)?
Answer: 0.1 µg/mL (≈ 0.264 µM)

Question: And the MIC (M. arginini G230)?
Answer: 0.1 µg/mL (≈ 0.264 µM)

Question: And the MIC (M. orale CH19299)?
Answer: 0.2 µg/mL (≈ 0.529 µM)

Question: Which MBC (M. orale CH-19299) does the source give for `CN(C)c1ccc(O)c2c1C[C@H]1C[C@H]3[C@H](N(C)C)C(O)=C(C(N)=O)C(=O)[C@@]3(O)C(O)=C1C2=O` [Compound 3, minocycline] here?
Answer: 25 µg/mL (≈ 54.6 µM)

Question: What about the MIC (M. orale CH-19299) of the same molecule?
Answer: 0.39 µg/mL (≈ 0.852 µM)

Question: What about the mycoplasma elimination (A. laidlawii PG-8; 12.5 μg/ml, day 0) of the same molecule?
Answer: +

Question: And the mycoplasma elimination (A. laidlawii PG-8; 12.5 μg/ml, day 4)?
Answer: -

Question: And the mycoplasma elimination (A. laidlawii PG-8; 12.5 μg/ml, day 7)?
Answer: +

Question: What about the mycoplasma elimination (A. laidlawii PG-8; 12.5 μg/ml, day 14) of the same molecule?
Answer: +

Question: And the mycoplasma elimination (A. laidlawii PG-8; 12.5 μg/ml, day 28)?
Answer: +

Question: What about the MIC (A. laidlawii PG8) of the same molecule?
Answer: 0.2 µg/mL (≈ 0.437 µM)

Question: What about the MIC (M. arginini G230) of the same molecule?
Answer: 0.39 µg/mL (≈ 0.852 µM)

Question: And the MIC (M. orale CH19299)?
Answer: 0.1 µg/mL (≈ 0.219 µM)

Question: For `NCC1CN(c2c(F)c(N)c3c(=O)c(C(=O)O)cn(C4CC4)c3c2F)CCO1` (stereo not shown) [Compound A, 5-amino-7-(2-aminomethylmorpholino)-1-cyclopropyl-6,8-difluoro-1,4-dihydro-4-oxoquinoline-3-carboxylic acid], which MBC (M. orale CH-19299) is on record?
Answer: 0.05 µg/mL (≈ 0.127 µM)

Question: What about the MIC (M. orale CH-19299) of the same molecule?
Answer: 0.05 µg/mL (≈ 0.127 µM)

Question: And the mycoplasma elimination (A. laidlawii PG-8; 0.1 μg/ml, day 0)?
Answer: +

Question: What about the mycoplasma elimination (A. laidlawii PG-8; 0.1 μg/ml, day 4) of the same molecule?
Answer: -

Question: And the mycoplasma elimination (A. laidlawii PG-8; 0.1 μg/ml, day 7)?
Answer: +

Question: And the mycoplasma elimination (A. laidlawii PG-8; 0.1 μg/ml, day 14)?
Answer: +

Question: What about the mycoplasma elimination (A. laidlawii PG-8; 0.1 μg/ml, day 28) of the same molecule?
Answer: +

Question: What about the mycoplasma elimination (A. laidlawii PG-8; 0.2 μg/ml, day 0) of the same molecule?
Answer: +

Question: What about the mycoplasma elimination (A. laidlawii PG-8; 0.2 μg/ml, day 4) of the same molecule?
Answer: -

Question: And the mycoplasma elimination (A. laidlawii PG-8; 0.2 μg/ml, day 7)?
Answer: -

Question: What about the mycoplasma elimination (A. laidlawii PG-8; 0.2 μg/ml, day 14) of the same molecule?
Answer: -

Question: What about the mycoplasma elimination (A. laidlawii PG-8; 0.2 μg/ml, day 28) of the same molecule?
Answer: -

Question: And the MIC (A. laidlawii PG8)?
Answer: 0.0125 µg/mL (≈ 0.0317 µM)

Question: And the MIC (M. arginini G230)?
Answer: 0.05 µg/mL (≈ 0.127 µM)

Question: And the MIC (M. orale CH19299)?
Answer: 0.05 µg/mL (≈ 0.127 µM)

From patent US5051419A, “Prevention or elimination of mycoplasma contamination of animal or plant cell cultures” (Dainippon Pharmaceutical Co., Ltd., priority 1988, dated 1991)
